Patent US9133157B2, “HIV protease inhibitors” (Merck Canada Inc., priority 2011, dated 2015)

Target: WT HIV-1 protease (Human immunodeficiency virus type 1 group M subtype B (isolate HXB2) (HIV-1), UniProt P04585)
Assay: Assay for inhibition of microbial expressed HIV protease (Procedure A, peptide substrate, HPLC fluorescence detection)
Type: biochemical
Conditions: WT HIV-1 protease 10 pM, substrate 400 micromolar, pH 5.5, 30 min preincubation, 1 hour at 30° C.; read-out: Enzyme inhibition IC50
Experimental: The inhibition of WT HIV-1 protease was studied using the reaction of the protease (expressed in Eschericia coli) with a peptide substrate [Val-Ser-Gln-Asn-(betanaphthyl)Ala-Pro-Ile-Val (SEQ ID NO:1)]. Compounds were tested using Procedure A. In Procedure A, the test compound was first preincubated with the enzyme in assay buffer (50 mM sodium acetate, pH 5.5, 100 mM NaCl, and 0.1% BSA) for 30 minutes at room temperature. Substrate was then added to 400 micromolar in a total volume of 80 microliters containing 10 picomolar HIV-1 protease and the reaction was incubated for 1 hour at 30° C. The reaction was quenched with the addition of 120 microliters of 10% phosphoric acid. The product formation was determined after separation of product and substrate on a Zorbax Eclipse XDB-C18 column (Agilent Technologies, Santa Clara, Calif.) connected to an Agilent 1100 high performance liquid chromatography system with fluorescence detection (excitation 270 nanometer and emission 330 nanometer).

| Compound | IC50 |
| --- | --- |
| COC(=O)N[C@H](C(=O)N[C@H](c1ccc([C@@H](CO)N(CCC(C)(C)C)S(=O)(=O)c2ccc(N)cc2)s1)C(F)(F)F)C(c1ccccc1)c1ccccc1 [Example 44, N-[(1S)-1-{5-[(1R)-1-{[(4-aminophenyl)sulfonyl](3,3-dimethylbutyl)amino}-2-hydroxyethyl]thiophen-2-yl}-2,2,2-trifluoroethyl]-Nα-(methoxycarbonyl)-β-phenyl-L-phenylalaninamide] | 0.196 nM |
| [2H]C([2H])([2H])C(N([C@H](CO)c1ccc([C@@H](NC(=O)[C@@H](NC(=O)OC)C(c2ccccc2)c2ccccc2)C(F)(F)F)s1)S(=O)(=O)c1ccc(N)cc1)C([2H])([2H])[2H] [Example 47, N-[(1S)-1-{5-[(1R)-1-{[(4-aminophenyl)sulfonyl][(1,1,1,3,3,3-^2H6)propan-2-yl]amino}-2-hydroxyethyl]thiophen-2-yl}-2,2,2-trifluoroethyl]-Nα-(methoxycarbonyl)-β-phenyl-L-phenylalaninamide] | 33.7 nM |
| COC(=O)N[C@H](C(=O)N[C@H](c1ccc([C@@H](CO)N(C(C)C)S(=O)(=O)c2ccc(N)s2)s1)C(F)(F)F)C(c1ccccc1)c1ccccc1 [Example 50, N-[(1S)-1-{5-[(1R)-1-{[(5-aminothiophen-2-yl)sulfonyl](propan-2-yl)amino}-2-hydroxyethyl]thiophen-2-yl}-2,2,2-trifluoroethyl]-Nα-(methoxycarbonyl)-β-phenyl-L-phenylalaninamide] | 121 nM |
| COC(=O)N[C@H](C(=O)N[C@H](c1ccc([C@@H](CO)N(CCC(C)(C)C)S(=O)(=O)c2ccn3ccnc3c2)s1)C(F)(F)F)C(c1ccccc1)c1ccccc1 [Example 51, N-[(1S)-1-(5-{(1R)-1-[(3,3-dimethylbutyl)(imidazo[1,2-c]pyridin-7-ylsulfonyl)amino]-2-hydroxyethyl}thiophen-2-yl)-2,2,2-trifluoroethyl]-Nα-(methoxycarbonyl)-β-phenyl-L-phenylalaninamide] | 17.5 nM |
| COC(=O)N[C@H](C(=O)N[C@H](c1ccc([C@@H](CO)N(CCC(C)(C)C)S(=O)(=O)c2cc(F)c(CO)c(F)c2)s1)C(F)(F)F)C(c1ccccc1)c1ccccc1 [Example 52, N-[(1S)-1-(5-{(1R)-1-[{[3,5-difluoro-4-(hydroxymethyl)phenyl]sulfonyl}(3,3-dimethylbutyl)amino]-2-hydroxyethyl}thiophen-2-yl)-2,2,2-trifluoroethyl]-Nα-(methoxycarbonyl)-β-phenyl-L-phenylalaninamide] | 2 nM |
| COC(=O)N[C@H](C(=O)N[C@H](c1ccc([C@@H](CO)N(CCC(C)(C)C)S(=O)(=O)c2ccc(CO)cc2)s1)C(F)(F)F)C(c1ccccc1)c1ccccc1 [Example 53, N-[(1S)-1-(5-{(1R)-1-[(3,3-dimethylbutyl){[4-(hydroxymethyl)phenyl]sulfonyl}amino]-2-hydroxyethyl}thiophen-2-yl)-2,2,2-trifluoroethyl]-Nα-(methoxycarbonyl)-β-phenyl-L-phenylalaninamide] | 0.156 nM |
| COC(=O)N[C@H](C(=O)N[C@H](c1ccc([C@@H](CO)N(CCC(C)(C)C)S(=O)(=O)c2cc3ccccc3[nH]2)s1)C(F)(F)F)C(c1ccccc1)c1ccccc1 [Example 55, N-[(1S)-1-(5-{(1R)-1-[(3,3-dimethylbutyl)(1H-indol-2-ylsulfonyl)amino]-2-hydroxyethyl}thiophen-2-yl)-2,2,2-trifluoroethyl]-Nα-(methoxycarbonyl)-β-phenyl-L-phenylalaninamide] | 45.8 nM |
| COC(=O)N[C@H](C(=O)N[C@H](c1ccc([C@@H](CO)N(CCC(C)(C)C)S(=O)(=O)c2ccc(CO)c(C(F)(F)F)c2)s1)C(F)(F)F)C(c1ccccc1)c1ccccc1 [Example 56, N-[(1S)-1-(5-{(1R)-1-[(3,3-dimethylbutyl){[4-(hydroxymethyl)-3-(trifluoromethyl)phenyl]sulfonyl}amino]-2-hydroxyethyl}thiophen-2-yl)-2,2,2-trifluoroethyl]-Nα-(methoxycarbonyl)-β-phenyl-L-phenylalaninamide] | 59.4 nM |
| COC(=O)N[C@H](C(=O)N[C@H](c1ccc([C@@H](CO)N(CCC(C)(C)C)S(=O)(=O)c2ccc(N)cn2)s1)C(F)(F)F)C(c1ccccc1)c1ccccc1 [Example 57, N-[(1S)-1-{5-[(1R)-1-{[(5-aminopyridin-2-yl)sulfonyl](3,3-dimethylbutyl)amino}-2-hydroxyethyl]thiophen-2-yl}-2,2,2-trifluoroethyl]-Nα-(methoxycarbonyl)-β-phenyl-L-phenylalaninamide] | 1.32 nM |
| COC(=O)N[C@H](C(=O)N[C@H](c1ccc([C@@H](CO)N(CCC(C)(C)C)S(=O)(=O)c2cccc3[nH]ccc23)s1)C(F)(F)F)C(c1ccccc1)c1ccccc1 [Example 59, N-[(1S)-1-(5-{(1R)-1-[(3,3-dimethylbutyl)(1H-indol-4-ylsulfonyl)amino]-2-hydroxyethyl}thiophen-2-yl)-2,2,2-trifluoroethyl]-Nα-(methoxycarbonyl)-β-phenyl-L-phenylalaninamide] | 4.22 nM |
| COC(=O)N[C@H](C(=O)N[C@H](c1ccc([C@@H](CO)N(CC(C)C)S(=O)(=O)c2ccc(N)cc2)s1)C(F)(F)F)C(c1ccccc1)c1ccccc1 [Example 60, N-[(1S)-1-{5-[(1R)-1-{[(4-aminophenyl)sulfonyl](2-methylpropyl)amino}-2-hydroxyethyl]thiophen-2-yl}-2,2,2-trifluoroethyy]-Nα-(methoxycarbonyl)-β-phenyl-L-phenylalaninamide] | 2.01 nM |
| COC(=O)N[C@H](C(=O)N[C@@H](c1ccc([C@@H](CO)N(CC(C)C)S(=O)(=O)c2ccc(N)cc2)s1)C(F)(F)F)C(c1ccccc1)c1ccccc1 [Example 61, N-[(1R)-1-{5-[(1R)-1-{[(4-aminophenyl)sulfonyl](2-methylpropyl)amino}-2-hydroxyethyl]thiophen-2-yl}-2,2,2-trifluoroethyl]-Nα-(methoxycarbonyl)-β-phenyl-L-phenylalaninamide] | 23 nM |
| CCN([C@H](CO)c1ccc([C@@H](NC(=O)[C@@H](NC(=O)OC)C(c2ccccc2)c2ccccc2)C(F)(F)F)s1)S(=O)(=O)c1ccc(N)cc1 [Example 62] | 18.5 nM |
| COC(=O)N[C@H](C(=O)N[C@H](c1ccc([C@@H](CO)N(CC(C)C)S(=O)(=O)c2ccc(N)cc2)s1)C1CC1)C(c1ccccc1)c1ccccc1 [Example 63, N-[(S)-{[4(1R)-1-{[(4-aminophenyl)sulfonyl](2-methylpropyl)amino}-2-hydroxyethyl]thiophen-2-yl}(cyclopropyl)methyl]-Nα-(methoxycarbonyl)-β-phenyl-L-phenylalaninamide] | 3.98 nM |
| COC(=O)N[C@H](C(=O)NC(C)(C)c1ccc(C(CO)N(CCC(C)C)S(=O)(=O)c2ccccc2)s1)C(c1ccccc1)c1ccccc1 (stereo partly drawn) [Example 64] | 6.48 nM |
| COC(=O)N[C@H](C(=O)N[C@H](c1ccc([C@@H](CO)N(C(C)C)S(=O)(=O)c2ccc(CO)cc2)s1)C(F)(F)F)C(c1ccccc1)c1ccccc1 [Example 65, Nα-(methoxycarbonyl)-β-phenyl-N-[(1S)-2,2,2-trifluoro-1-(5-{(1R)-2-hydroxy-1-[{[4-(hydroxymethyl)phenyl]sulfonyl}(propan-2-yl)amino]ethyl}thiophen-2-yl)ethyl]-L-phenylalaninamide] | 0.18 nM |
| COC(=O)Nc1ccc(S(=O)(=O)N(CCC(C)(C)C)[C@H](CO)c2ccc([C@@H](NC(=O)[C@@H](NC(=O)OC)C(c3ccccc3)c3ccccc3)C(F)(F)F)s2)cc1 [Example 70, N-[(1S)-1-(5-{1-[(3,3-dimethylbutyl)({4-[(methoxycarbonyl)amino]phenyl}sulfonyl)amino]-2-hydroxyethyl}thiophen-2-yl)-2,2,2-trifluoroethyl]-Nα-(methoxycarbonyl)-β-phenyl-L-phenylalaninamide] | 3.16 nM |
| COC(=O)N[C@H](C(=O)N[C@H](c1ccc([C@@H](CO)N(CCC(C)(C)C)S(=O)(=O)c2ccc3nccn3c2)s1)C(F)(F)F)C(c1ccccc1)c1ccccc1 [Example 71, N-[(1S)-1-(5-{(1R)-1-[(3,3-dimethylbutyl)(imidazo[1,2-a]pyridin-6-ylsulfonyl)amino]-2-hydroxyethyl}thiophen-2-yl)-2,2,2-trifluoroethyl]-Nα-(methoxycarbonyl)-β-phenyl-L-phenylalaninamide] | 6.64 nM |
| COC(=O)N[C@H](C(=O)N[C@H](c1ccc([C@@H](CO)N(CCC(C)(C)C)S(=O)(=O)c2ccc3ncccc3c2)s1)C(F)(F)F)C(c1ccccc1)c1ccccc1 [Example 73, Methyl [(2S)-1-{[(1S)-1-(5-{(1R)-1-[(3,3-dimethylbutyl)(quinolin-6-ylsulfonyl)amino]-2-hydroxyethyl}thiophen-2-yl)-2,2,2-trifluoroethyl]amino}-1-oxo-3,3-diphenylpropan-2-yl]carbamate] | 2.03 nM |
| COC(=O)N[C@H](C(=O)N[C@H](c1ccc([C@@H](CO)N(CCC(C)(C)C)S(=O)(=O)c2ccc3nc[nH]c3c2)s1)C(F)(F)F)C(c1ccccc1)c1ccccc1 [Example 74, N-[(1S)-1-(5-{(1R)-1-[(1H-benzimidazol-6-ylsulfonyl)(3,3-dimethylbutyl)amino]-2-hydroxyethyl}thiophen-2-yl)-2,2,2-trifluoroethyl]-Nα-(methoxycarbonyl)-β-phenyl-L-phenylalaninamide] | 0.45 nM |
| COC(=O)N[C@H](C(=O)N[C@@H](C)c1ccc([C@@H](CO)N(C(C)C)S(=O)(=O)c2ccc(N)cc2)s1)C(c1ccccc1)c1ccccc1 [Example 75, N-[(1S)-1-{5-[(1R)-1-{[(4-aminophenyl)sulfonyl](propan-2-yl)amino}-2-hydroxyethyl]thiophen-2-yl}ethyl]-Nα-(methoxycarbonyl)-β-phenyl-L-phenylalaninamide] | 7.89 nM |
